Laboratory results as given in paper PMC3538728 (PLoS ONE, 2013).
Several values for one entry are separate records, joined by “and”; a condition that tells them apart may be missing. Equal entries are not always repeated. Where two headings read alike, the source gives them in different places. Marks after values point to notes of the source that are not given here.

Molecular target: T1, γ-secretase (Homo sapiens, UniProt P49768)
T1 construct: γ-Secretase is composed of four subunits: Aph1, Pen2, glycosylated nicastrin, and endo-proteolyzed presenilin as the catalytic core; endogenous in cells; host or cells: HeLa S3 (ATCC CCL-2.2)
T1 sequence (Q9NZ42 whole entry, other chains not shown): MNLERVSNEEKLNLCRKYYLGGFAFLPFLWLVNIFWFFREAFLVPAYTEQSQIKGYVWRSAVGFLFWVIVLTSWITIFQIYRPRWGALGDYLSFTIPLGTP
T1 sequence (Q92542 34-709, other chains not shown, further chain): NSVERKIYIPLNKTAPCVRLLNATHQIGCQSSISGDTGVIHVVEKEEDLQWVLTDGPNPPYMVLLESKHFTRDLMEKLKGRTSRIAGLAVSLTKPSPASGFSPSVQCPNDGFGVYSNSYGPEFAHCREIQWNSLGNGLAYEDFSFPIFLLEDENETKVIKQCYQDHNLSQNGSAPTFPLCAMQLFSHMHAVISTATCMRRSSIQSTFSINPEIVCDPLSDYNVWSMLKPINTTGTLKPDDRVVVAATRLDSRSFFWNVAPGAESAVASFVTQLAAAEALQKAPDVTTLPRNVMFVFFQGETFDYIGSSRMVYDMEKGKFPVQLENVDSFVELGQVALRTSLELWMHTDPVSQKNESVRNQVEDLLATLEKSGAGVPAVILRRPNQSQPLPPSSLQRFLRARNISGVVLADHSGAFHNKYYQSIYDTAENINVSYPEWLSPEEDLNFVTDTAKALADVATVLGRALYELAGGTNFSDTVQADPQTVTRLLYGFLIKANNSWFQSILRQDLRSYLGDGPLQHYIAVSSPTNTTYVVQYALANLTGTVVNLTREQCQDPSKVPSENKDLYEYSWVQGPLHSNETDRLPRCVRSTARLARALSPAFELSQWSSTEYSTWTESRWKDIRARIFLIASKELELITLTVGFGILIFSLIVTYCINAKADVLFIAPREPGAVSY
T1 sequence (Q96BI3 whole entry, other chains not shown, further chain): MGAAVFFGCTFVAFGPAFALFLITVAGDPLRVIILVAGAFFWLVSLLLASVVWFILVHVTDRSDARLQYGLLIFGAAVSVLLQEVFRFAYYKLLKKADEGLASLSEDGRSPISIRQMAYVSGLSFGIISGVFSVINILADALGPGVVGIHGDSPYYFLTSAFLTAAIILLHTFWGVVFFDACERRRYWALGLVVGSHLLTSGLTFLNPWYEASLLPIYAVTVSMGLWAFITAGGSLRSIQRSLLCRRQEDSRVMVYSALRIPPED
Experiment: Aβ 1–40 secretion from HeLa cells in the presence of DAPT (sandwich ELISA), dose-response fits
Format: cell-based
Description: HeLa cells have been transfected using Lipofectamine LTX™ reagent following the manufacturer instructions. The transfection protocol and concentration of pSG5-cDNAwtC99 plasmid have been optimized to achieve desired assay sensitivity, a gradual increase in the substrate expression level, and a smooth transition from biphasic to the standard dose-response curves (Figs. 2–3). Initially concentration of pSG5-cDNAwtC99 plasmid have been optimized by western blots using anti-flag αM2 monoclonal antibody as described in our previous study. The cells were transfected in 24-well plates. The day before transfection the cells were trypsinized and counted. About 0.85×10^5 cells were seeded per well in 0.5 ml of complete growth medium to achieve about 75% confluent cultures on the day of transfection. Before the transfection old medium was removed and replaced with fresh 0.5 ml of complete growth medium. For transfection 5X DNA concentration was diluted in 500 µl of Opti-MEM®I Reduced Serum Media and mixed with 0.7 µl of Lipofectamine LTX™ Reagent. The solution was gently mixed and incubated for 30 minutes at room temperature to form DNA- Lipofectamine LTX™ Reagent complexes. Following the 30 min incubation, 100 µl of the DNA- Lipofectamine LTX™ Reagent complexes was added directly to each well containing cells and mixed gently by rocking the plate back and forth. The cells were incubated at 37°C in a CO2 incubator for 18 hours.
Fresh medium was added 18 hours after the transfection (0.5 ml per well), to prepare the cells for incubation with DAPT [18], [51]. Different concentrations of DAPT were prepared in DMSO, and added to the cells so that the final DMSO concentration in the culture was 0.1% (v/v). DMSO vehicle represents 0 nM DAPT. The cells were incubated with DAPT at given concentrations for 15 hours.
The assay linear response is in the range from 6–125 pM of Aβ 1–40. The assays were performed by closely following the manufacturer instructions. […] Each well was filled with 50 µl of the antibody conjugate solution and 50 µl of sample. The Aβ 1–40 standards were supplied by the manufacturer and prepared in parallel with other samples. All of the prepared wells were wrapped in aluminum foil and incubated overnight at 4°C with gentle mixing. The next day each well was washed five times with 300 µl of wash solution. After each […] wash, the wash solution was poured out and the wells were dried by tapping the plates on an absorbing paper. Washed wells were filled with 100 µl of the enzyme conjugate solution, covered, and incubated for 30 min at room temperature with shaking. The washing procedure was repeated once again to remove excess of the enzyme-conjugate. Next 100 µl of the substrate solution was added in each well in dark, and kept for 30 minutes covered at room temperature. The reaction was quenched by adding 50 µl of stop solution to each well, and within 15 min the signal intensity was read by measuring absorption at 450 nm.
All experimental results were analyzed using MicroCal Origin 7.0 program, nonlinear regressions, and equations that represent specific mechanism. All results are reported as the best fit value ± standard error with two-sigma confidence intervals shown in square brackets (i.e. x±y [p, q]). Briefly, the standard error indicates random errors (i.e. precision) for each method, while the two sigma confidence intervals indicate the ability of given experimental setup to provide information about specific best-fit parameter. The random error for presented experiments is low, as indicated by a low scatter from the best fit values. The sharp confidence intervals can be obtained by taking a large number of independent data points that cover all segments that define the measured functions. […]

[1] = HeLa, 250 ng/mL pSG5-cDNAwtC99, eqn. 2
[2] = HeLa, 400 ng/mL pSG5-cDNAwtC99, eqn. 2
[3] = HeLa, 600 ng/mL pSG5-cDNAwtC99, eqn. 2
[4] = HeLa, 800 ng/mL pSG5-cDNAwtC99, eqn. 2
[5] = average over 0-92 ng/mL pSG5-cDNAwtC99
[6] = untransfected HeLa cells, eqn. 1, six free fit parameters
[7] = untransfected HeLa cells, eqn. 1 with IA and MI as constants
[8] = untransfected HeLa cells, measured separately, taken as constant in regression

SMILES: C[C@H](NC(=O)Cc1cc(F)cc(F)c1)C(=O)N[C@H](C(=O)OC(C)(C)C)c1ccccc1 [DAPT, N-[N-(3,5-difluorophenacetyl)-L-alanyl]-S-phenylglycine t-butyl ester]
- Maximal Inhibition, MI (HeLa, 92 ng/mL pSG5-cDNAwtC99, eqn. 1): 1.9 ± 0.6 pM per 10^6 cells
- Initial Activity, IA (HeLa, 92 ng/mL pSG5-cDNAwtC99, eqn. 1, activity at zero DAPT): 119 ± 4 pM per 10^6 cells
- EC50 (HeLa, 92 ng/mL pSG5-cDNAwtC99, eqn. 1, read-out: Activation EC50): 0.178 ± 0.045 µM
- IC50 (HeLa, 92 ng/mL pSG5-cDNAwtC99, eqn. 1, read-out: Inhibition IC50): 0.661 ± 0.08 µM
- Inhibition Hill's coef [1]: 1.02 ± 0.07
- Maximal Inhibition, MI [1]: -0.9 ± 0.4 pM per 10^6 cells
- Initial Activity, IA (HeLa, 250 ng/mL pSG5-cDNAwtC99, eqn. 2, activity at zero DAPT): 229 ± 4 pM per 10^6 cells
- IC50 (HeLa, 250 ng/mL pSG5-cDNAwtC99, standard dose-response, eqn. 2, read-out: Inhibition IC50): 0.126 ± 0.009 µM
- Inhibition Hill's coef [2]: 0.95 ± 0.04
- Maximal Inhibition, MI [2]: 2.0 ± 0.9 pM per 10^6 cells
- Initial Activity, IA (HeLa, 400 ng/mL pSG5-cDNAwtC99, eqn. 2, activity at zero DAPT): 190 ± 2 pM per 10^6 cells
- IC50 (HeLa, 400 ng/mL pSG5-cDNAwtC99, standard dose-response, eqn. 2, read-out: Inhibition IC50): 0.11 ± 0.008 µM
- Inhibition Hill's coef [3]: 0.84 ± 0.03
- Maximal Inhibition, MI [3]: -4 ± 2 pM per 10^6 cells
- Initial Activity, IA (HeLa, 600 ng/mL pSG5-cDNAwtC99, eqn. 2, activity at zero DAPT): 140 ± 4 pM per 10^6 cells
- IC50 (HeLa, 600 ng/mL pSG5-cDNAwtC99, standard dose-response, eqn. 2, read-out: Inhibition IC50): 0.098 ± 0.006 µM
- Inhibition Hill's coef [4]: 0.61 ± 0.07
- Maximal Inhibition, MI [4]: 2 ± 0.8 pM per 10^6 cells
- Initial Activity, IA (HeLa, 800 ng/mL pSG5-cDNAwtC99, eqn. 2, activity at zero DAPT): 90 ± 1 pM per 10^6 cells
- IC50 (HeLa, 800 ng/mL pSG5-cDNAwtC99, standard dose-response, eqn. 2, read-out: Inhibition IC50): 0.089 ± 0.005 µM
- mode of inhibition (at saturating C99 substrate): noncompetitive inhibitor
- Activation Hill coef., average [5]: 1.0 ± 0.1
- Inhibition Hill's coef, average [5]: 2.1±0.2
- Maximal Inhibition, MI, average [5]: 0.5 ± 0.2 pM per 10^6 cells
- IC50 (average over 0-92 ng/mL pSG5-cDNAwtC99 (all biphasic curves), read-out: Inhibition IC50, average): 0.534 ± 0.053 µM
- EC50 (average over 0-92 ng/mL pSG5-cDNAwtC99 (all biphasic profiles), read-out: Activation EC50, average): 0.111 ± 0.041 µM
- Maximal Activity, MA, average (average over 0-92 ng/mL pSG5-cDNAwtC99 (biphasic curves)): 189 pM per 10^6 cells
- Maximal Inhibition, MI, average (average over 250-800 ng/mL pSG5-cDNAwtC99): -0.5 ± 0.6 pM per 10^6 cells
- IC50 (average over 250-800 ng/mL pSG5-cDNAwtC99 (standard dose-response curves), read-out: Inhibition IC50, average): 0.106 ± 0.016 µM
- potential to activate γ-secretase activity (MA vs. IA) (if binding only at the activation site, 31 pM vs. 196 pM Aβ 1–40 per 10^6 cells): ~7 fold
- cDNAwtC99 required to reach activation by DAPT (transfection without DAPT giving same Aβ 1-40 secretion as endogenous substrate at 33 nM DAPT): 70 ng/mL
- cDNAwtC99 required to reach activation by DAPT (transfection without DAPT giving same Aβ 1-40 secretion as endogenous substrate at 100 nM DAPT): 120 ng/mL
- cDNAwtC99 required to reach activation by DAPT (transfection without DAPT giving same Aβ 1-40 secretion as endogenous substrate at 333 nM DAPT): 118 ng/mL
- cDNAwtC99 required to reach activation by DAPT (transfection without DAPT giving same Aβ 1-40 secretion as endogenous substrate at 500 nM DAPT): 100 ng/mL
- cDNAwtC99 required to reach activation by DAPT (transfection without DAPT giving same Aβ 1-40 secretion as endogenous substrate at 1000 nM DAPT): 16 ng/mL
- activity on Endogenous substrate (Aβ 1-40 secreted) (untransfected HeLa cells, 33 nM DAPT): 81.1 pM per 10^6 cells
- activity on Endogenous substrate (Aβ 1-40 secreted) (untransfected HeLa cells, 100 nM DAPT): 132 pM per 10^6 cells and 132.0 pM per 10^6 cells
- activity on Endogenous substrate (Aβ 1-40 secreted) (untransfected HeLa cells, 333 nM DAPT): 129.0 pM per 10^6 cells
- activity on Endogenous substrate (Aβ 1-40 secreted) (untransfected HeLa cells, 500 nM DAPT): 111.6 pM per 10^6 cells
- activity on Endogenous substrate (Aβ 1-40 secreted) (untransfected HeLa cells, 1000 nM DAPT): 43.0 pM per 10^6 cells
- observed maximal activity, Aβ 1–40 secreted (untransfected HeLa cells, at 108 nM DAPT): 145 pM per 10^6 cells
- Activation Hill's coef [6]: 1.09 ± 0.4
- Inhibition Hill's coef [6]: 1.9±0.5 and 1.92 ± 0.5
- Activation Hill's coef [7]: 1.09 ± 0.16
- Inhibition Hill's coef [7]: 1.92 ± 0.25
- Maximal Activity, MA [7]: 196 ± 35 pM per 10^6 cells
- EC50 (untransfected HeLa cells, eqn. 1 with IA and MI as constants, read-out: Activation EC50): 0.072 ± 0.009 µM
- IC50 (untransfected HeLa cells, eqn. 1 with IA and MI as constants, read-out: Inhibition IC50): 0.472 ± 0.035 µM
- Initial Activity, IA [8]: 31 ^c pM per 10^6 cells
- Maximal Inhibition, MI [8]: 0 ^c pM per 10^6 cells
- DAPT concentration at which maximal activity is observed (untransfected HeLa cells, peak of biphasic curve): 108 nM
